In the NIST ThermoML archive (doi:10.1021/je050376y):
± gives the expanded uncertainty stated by the source.

What was measured:
[1] = 101 kPa, Liquid
[2] = xn = mol fraction of the nth substance listed; settings: 101 kPa, Liquid

## OCCO [1,2-ethanediol]
[1]; 308.15 K
  mass density: 1101.88 ± 0.44 kg/m3
  viscosity: 11.19 ± 0.21 mPa·s
[1]; 313.15 K
  mass density: 1098.33 ± 0.43 kg/m3
  viscosity: 9.444 ± 0.18 mPa·s
[1]; 318.15 K
  mass density: 1094.75 ± 0.43 kg/m3
  viscosity: 7.972 ± 0.16 mPa·s
[1]; 323.15 K
  mass density: 1091.16 ± 0.42 kg/m3
  viscosity: 6.794 ± 0.14 mPa·s
[1]; 333.15 K
  mass density: 1083.94 ± 0.42 kg/m3
  viscosity: 5.065 ± 0.11 mPa·s
[1]; 343.15 K
  mass density: 1074.53 ± 5 kg/m3
  viscosity: 3.879 ± 0.086 mPa·s
[1]; 353.15 K
  mass density: 1069.72 ± 0.4 kg/m3
  viscosity: 3.058 ± 0.069 mPa·s

## OCCO [1,2-ethanediol] + Cc1ccc(O)cc1
[2]; 308.15 K, x2 = 0
  mass density: 1101.88 ± 0.44 kg/m3
  viscosity: 11.19 ± 0.21 mPa·s
[2]; 313.15 K, x2 = 0
  mass density: 1098.33 ± 0.43 kg/m3
  viscosity: 9.444 ± 0.18 mPa·s
[2]; 318.15 K, x2 = 0
  mass density: 1094.75 ± 0.43 kg/m3
  viscosity: 7.972 ± 0.16 mPa·s
[2]; 323.15 K, x2 = 0
  mass density: 1091.16 ± 0.42 kg/m3
  viscosity: 6.794 ± 0.14 mPa·s
[2]; 333.15 K, x2 = 0
  mass density: 1083.94 ± 0.42 kg/m3
  viscosity: 5.065 ± 0.11 mPa·s
[2]; 343.15 K, x2 = 0
  mass density: 1074.53 ± 5 kg/m3
  viscosity: 3.879 ± 0.086 mPa·s
[2]; 353.15 K, x2 = 0
  mass density: 1069.72 ± 0.4 kg/m3
  viscosity: 3.058 ± 0.069 mPa·s

## Cc1ccc(O)cc1 [4-methylphenol]
[1]; 308.15 K
  mass density: 1021.98 ± 0.45 kg/m3
  viscosity: 8.444 ± 0.17 mPa·s
[1]; 313.15 K
  mass density: 1018.05 ± 0.45 kg/m3
  viscosity: 6.745 ± 0.14 mPa·s
[1]; 318.15 K
  mass density: 1014.09 ± 0.44 kg/m3
  viscosity: 5.471 ± 0.12 mPa·s
[1]; 323.15 K
  mass density: 1010.12 ± 0.44 kg/m3
  viscosity: 4.532 ± 0.1 mPa·s
[1]; 328.15 K
  mass density: 1006.57 ± 0.44 kg/m3
  viscosity: 3.888 ± 0.087 mPa·s
[1]; 333.15 K
  mass density: 1002.09 ± 0.43 kg/m3
  viscosity: 3.245 ± 0.073 mPa·s
[1]; 343.15 K
  mass density: 992.07 ± 5 kg/m3
  viscosity: 2.431 ± 0.056 mPa·s
[1]; 353.15 K
  mass density: 986.24 ± 0.43 kg/m3
  viscosity: 1.891 ± 0.044 mPa·s

## Cc1ccc(O)cc1 [4-methylphenol] + CO
[2]; 308.15 K, x1 = 0.1
  mass density: 837.27 ± 0.45 kg/m3
  viscosity: 0.701 ± 0.018 mPa·s
[2]; 308.15 K, x1 = 0.1999
  mass density: 881.21 ± 0.4 kg/m3
  viscosity: 0.977 ± 0.024 mPa·s
[2]; 308.15 K, x1 = 0.2998
  mass density: 914.53 ± 0.38 kg/m3
  viscosity: 1.333 ± 0.032 mPa·s
[2]; 308.15 K, x1 = 0.4
  mass density: 940.54 ± 0.37 kg/m3
  viscosity: 1.762 ± 0.041 mPa·s
[2]; 308.15 K, x1 = 0.4999
  mass density: 961.59 ± 0.37 kg/m3
  viscosity: 2.316 ± 0.053 mPa·s
[2]; 308.15 K, x1 = 0.5999
  mass density: 977.95 ± 0.38 kg/m3
  viscosity: 3.021 ± 0.068 mPa·s
[2]; 308.15 K, x1 = 0.6999
  mass density: 992.04 ± 0.39 kg/m3
  viscosity: 3.928 ± 0.088 mPa·s
[2]; 308.15 K, x1 = 0.8
  mass density: 1003.53 ± 0.41 kg/m3
  viscosity: 5.072 ± 0.11 mPa·s
[2]; 308.15 K, x1 = 0.8999
  mass density: 1013.73 ± 0.43 kg/m3
  viscosity: 6.535 ± 0.14 mPa·s
[2]; 308.15 K, x1 = 1
  mass density: 1021.98 ± 0.45 kg/m3
  viscosity: 8.444 ± 0.17 mPa·s
[2]; 313.15 K, x1 = 0.1
  mass density: 832.69 ± 0.46 kg/m3
  viscosity: 0.652 ± 0.017 mPa·s
[2]; 313.15 K, x1 = 0.1999
  mass density: 876.78 ± 0.41 kg/m3
  viscosity: 0.901 ± 0.023 mPa·s
[2]; 313.15 K, x1 = 0.2998
  mass density: 910.25 ± 0.38 kg/m3
  viscosity: 1.218 ± 0.03 mPa·s
[2]; 313.15 K, x1 = 0.4
  mass density: 936.35 ± 0.37 kg/m3
  viscosity: 1.588 ± 0.038 mPa·s
[2]; 313.15 K, x1 = 0.4999
  mass density: 957.48 ± 0.37 kg/m3
  viscosity: 2.044 ± 0.047 mPa·s
[2]; 313.15 K, x1 = 0.5999
  mass density: 973.9 ± 0.38 kg/m3
  viscosity: 2.631 ± 0.06 mPa·s
[2]; 313.15 K, x1 = 0.6999
  mass density: 988.04 ± 0.39 kg/m3
  viscosity: 3.36 ± 0.076 mPa·s
[2]; 313.15 K, x1 = 0.8
  mass density: 999.57 ± 0.4 kg/m3
  viscosity: 4.251 ± 0.094 mPa·s
[2]; 313.15 K, x1 = 0.8999
  mass density: 1009.79 ± 0.42 kg/m3
  viscosity: 5.364 ± 0.12 mPa·s
[2]; 313.15 K, x1 = 1
  mass density: 1018.05 ± 0.45 kg/m3
  viscosity: 6.745 ± 0.14 mPa·s
[2]; 318.15 K, x1 = 0.1
  mass density: 828.09 ± 0.46 kg/m3
  viscosity: 0.608 ± 0.016 mPa·s
[2]; 318.15 K, x1 = 0.1999
  mass density: 872.35 ± 0.41 kg/m3
  viscosity: 0.834 ± 0.021 mPa·s
[2]; 318.15 K, x1 = 0.2998
  mass density: 905.93 ± 0.39 kg/m3
  viscosity: 1.112 ± 0.027 mPa·s
[2]; 318.15 K, x1 = 0.4
  mass density: 932.16 ± 0.38 kg/m3
  viscosity: 1.435 ± 0.034 mPa·s
[2]; 318.15 K, x1 = 0.4999
  mass density: 953.35 ± 0.38 kg/m3
  viscosity: 1.817 ± 0.043 mPa·s
[2]; 318.15 K, x1 = 0.5999
  mass density: 969.84 ± 0.38 kg/m3
  viscosity: 2.31 ± 0.053 mPa·s
[2]; 318.15 K, x1 = 0.6999
  mass density: 984.03 ± 0.39 kg/m3
  viscosity: 2.894 ± 0.066 mPa·s
[2]; 318.15 K, x1 = 0.8
  mass density: 995.58 ± 0.4 kg/m3
  viscosity: 3.603 ± 0.081 mPa·s
[2]; 318.15 K, x1 = 0.8999
  mass density: 1005.83 ± 0.42 kg/m3
  viscosity: 4.44 ± 0.099 mPa·s
[2]; 318.15 K, x1 = 1
  mass density: 1014.09 ± 0.44 kg/m3
  viscosity: 5.471 ± 0.12 mPa·s
[2]; 323.15 K, x1 = 0.1
  mass density: 823.45 ± 0.47 kg/m3
  viscosity: 0.568 ± 0.015 mPa·s
[2]; 323.15 K, x1 = 0.1999
  mass density: 867.89 ± 0.42 kg/m3
  viscosity: 0.772 ± 0.02 mPa·s
[2]; 323.15 K, x1 = 0.2998
  mass density: 901.61 ± 0.39 kg/m3
  viscosity: 0.998 ± 0.025 mPa·s
[2]; 323.15 K, x1 = 0.4
  mass density: 927.93 ± 0.38 kg/m3
  viscosity: 1.305 ± 0.031 mPa·s
[2]; 323.15 K, x1 = 0.4999
  mass density: 949.21 ± 0.38 kg/m3
  viscosity: 1.633 ± 0.039 mPa·s
[2]; 323.15 K, x1 = 0.5999
  mass density: 965.76 ± 0.38 kg/m3
  viscosity: 2.043 ± 0.047 mPa·s
[2]; 323.15 K, x1 = 0.6999
  mass density: 980 ± 0.39 kg/m3
  viscosity: 2.527 ± 0.058 mPa·s
[2]; 323.15 K, x1 = 0.8
  mass density: 991.58 ± 0.4 kg/m3
  viscosity: 3.092 ± 0.07 mPa·s
[2]; 323.15 K, x1 = 0.8999
  mass density: 1001.84 ± 0.42 kg/m3
  viscosity: 3.754 ± 0.084 mPa·s
[2]; 323.15 K, x1 = 1
  mass density: 1010.12 ± 0.44 kg/m3
  viscosity: 4.532 ± 0.1 mPa·s
[2]; 328.15 K, x1 = 0.1
  mass density: 819.09 ± 0.48 kg/m3
  viscosity: 0.533 ± 0.015 mPa·s
[2]; 328.15 K, x1 = 0.1999
  mass density: 863.71 ± 0.42 kg/m3
  viscosity: 0.719 ± 0.019 mPa·s
[2]; 328.15 K, x1 = 0.2998
  mass density: 897.58 ± 0.4 kg/m3
  viscosity: 0.942 ± 0.024 mPa·s
[2]; 328.15 K, x1 = 0.4
  mass density: 924.03 ± 0.38 kg/m3
  viscosity: 1.192 ± 0.029 mPa·s
[2]; 328.15 K, x1 = 0.4999
  mass density: 945.39 ± 0.38 kg/m3
  viscosity: 1.477 ± 0.035 mPa·s
[2]; 328.15 K, x1 = 0.5999
  mass density: 962.01 ± 0.38 kg/m3
  viscosity: 1.821 ± 0.043 mPa·s
[2]; 328.15 K, x1 = 0.6999
  mass density: 976.3 ± 0.39 kg/m3
  viscosity: 2.229 ± 0.051 mPa·s
[2]; 328.15 K, x1 = 0.8
  mass density: 987.91 ± 0.4 kg/m3
  viscosity: 2.688 ± 0.061 mPa·s
[2]; 328.15 K, x1 = 0.8999
  mass density: 998.2 ± 0.42 kg/m3
  viscosity: 3.212 ± 0.073 mPa·s
[2]; 328.15 K, x1 = 1
  mass density: 1006.57 ± 0.44 kg/m3
  viscosity: 3.888 ± 0.087 mPa·s

## CO [methanol]
[1]; 308.15 K
  mass density: 776.92 ± 0.51 kg/m3
  viscosity: 0.476 ± 0.014 mPa·s
[1]; 313.15 K
  mass density: 772.13 ± 0.52 kg/m3
  viscosity: 0.445 ± 0.013 mPa·s
[1]; 318.15 K
  mass density: 767.31 ± 0.53 kg/m3
  viscosity: 0.421 ± 0.013 mPa·s
[1]; 323.15 K
  mass density: 762.46 ± 0.53 kg/m3
  viscosity: 0.395 ± 0.012 mPa·s
[1]; 328.15 K
  mass density: 757.85 ± 0.54 kg/m3
  viscosity: 0.372 ± 0.012 mPa·s

## CO [methanol] + Cc1ccc(O)cc1
[2]; 308.15 K, x2 = 0
  mass density: 776.92 ± 0.51 kg/m3
  viscosity: 0.476 ± 0.014 mPa·s
[2]; 313.15 K, x2 = 0
  mass density: 772.13 ± 0.52 kg/m3
  viscosity: 0.445 ± 0.013 mPa·s
[2]; 318.15 K, x2 = 0
  mass density: 767.31 ± 0.53 kg/m3
  viscosity: 0.421 ± 0.013 mPa·s
[2]; 323.15 K, x2 = 0
  mass density: 762.46 ± 0.53 kg/m3
  viscosity: 0.395 ± 0.012 mPa·s
[2]; 328.15 K, x2 = 0
  mass density: 757.85 ± 0.54 kg/m3
  viscosity: 0.372 ± 0.012 mPa·s
